# Reference: patent US10005774B2, “Syk inhibitors” (Gilead Sciences, Inc., priority 2013, dated 2018)
# Biological target: Syk (Homo sapiens, UniProt P43405)
# Test: High Throughput Syk Biochemical Assay (KinEASE TR-FRET)
# Settings: TABLE D, 20 μM ATP, 1 μM biotinylated peptide, 0.015 nM Syk, 30 min at room temperature, read-out: IC50
# Description: High Throughput Syk Biochemical Assay
# Syk activity was measured using KinEASE (Cisbio), a time-resolved fluorescence resonance energy transfer (TR-FRET) immunoassay. In this assay. Syk-catalyzes the phosporylation of a XL665-labeled peptide substrate. Europium conjugated phospho-tyrosine specific antibody binds the resulting phosphorylated peptide. Formation of phosphorylated peptide is quantified by TR-FRET with Europium as the donor and XL665 the acceptor in a 2-step endpoint assay. In brief, test compounds serially diluted in DMSO were delivered into Corning white, low volume, non-binding 384 well plates using the Echo 550 acoustic liquid dispenser (Labcyte®). Syk enzyme and substrates were dispensed into assay plates using a Multi-Flo (Bio-Tek Instruments). […] Percent inhibition was calculated as follows: % Inhibition=100×(RatioSample−Ratio0% Inhibition)/(Ratio100% Inhibition−Ratio0% Inhibition)
row,Compound,IC50 [nM]
1,"COc1ccc(-c2cc(O[C@H](C)[C@H]3CNC(=O)C3)c3c(c2)ncn3C)cc1OC [(R)-4-((R)-1-((5-(3,4-dimethoxyphenyl)-1-methyl-1H-benzo[d]imidazol-7-yl)oxy)ethyl)pyrrolidin-2-one]",38.2
2,"C[C@@H](Oc1nc(-c2ccc3cnn(C)c3c2)cc2ncn(C)c12)[C@H]1CNC(=O)C1 [(R)-4-((R)-1-((3-methyl-6-(1-methyl-1H-indazol-6-yl)-3H-imidazo[4,5-c]pyridin-4-yl)oxy)ethyl)pyrrolidin-2-one]",16.8
3,"COc1ccc(-c2cc(O[C@H](C)[C@H]3CNC(=O)C3)c3sc(C)nc3c2)cc1OC [(R)-4-((R)-1-((5-(3,4-dimethoxyphenyl)-2-methylbenzo[d]thiazol-7-yl)oxy)ethyl)pyrrolidin-2-one]",70
4,"C[C@@H](Oc1nc(-c2ccc3c(cnn3C)c2)cc2ncn(C)c12)[C@H]1CNC(=O)C1 [(R)-4-((R)-1-((3-methyl-6-(1-methyl-1H-indazol-5-yl)-3H-imidazo[4,5-c]pyridin-4-yl)oxy)ethyl)pyrrolidin-2-one]",9.62
5,C[C@@H](Oc1cc(-c2ccc(N3CCN(C(=O)OC(C)(C)C)CC3)cn2)cc2ncsc12)[C@H]1CNC(=O)C1 (stereo in doubt) [tert-butyl 4-(6-(7-((R)-1-((R)-5-oxopyrrolidin-3-yl)ethoxy)benzo[d]thiazol-5-yl)pyridin-3-yl)piperazine-1-carboxylate],5.16
6,"C[C@@H](Oc1nc(-c2cnn(C(C)(C)C)c2)cc2ncn(C(F)F)c12)[C@H]1CNC(=O)C1 [(R)-4-((R)-1-(6-(1-tert-butyl-1H-pyrazol-4-yl)-3-(difluoromethyl)-3H-imidazo[4,5-c]pyridin-4-yloxy)ethyl)pyrrolidin-2-one]",1.22
7,"COc1cc(-c2cc3ncn(C)c3c(O[C@H](C)[C@H]3CNC(=O)C3)n2)ccc1F [(R)-4-((R)-1-(6-(4-fluoro-3-methoxyphenyl)-3-methyl-3H-imidazo[4,5-c]pyridin-4-yloxy)ethyl)pyrrolidin-2-one]",39.5
8,"C[C@@H](Oc1nc(-c2cnn(C3COC3)c2)cc2ncn(C)c12)[C@H]1CNC(=O)C1 [(R)-4-((R)-1-(3-methyl-6-(1-(oxetan-3-yl)-1H-pyrazol-4-yl)-3H-imidazo[4,5-c]pyridin-4-yloxy)ethyl)pyrrolidin-2-one]",23.5
9,"C[C@@H](Oc1nc(-c2ccc3c(c2)OC(F)(F)O3)cc2ncn(C)c12)[C@H]1CNC(=O)C1 [(R)-4-((R)-1-(6-(2,2-difluorobenzo[d][1,3]dioxol-5-yl)-3-methyl-3H-imidazo[4,5-c]pyridin-4-yloxy)ethyl)pyrrolidin-2-one]",148
10,"C[C@@H](Oc1nc(-c2cnn(C(C)(C)C)c2)cc2ncn(C)c12)[C@H]1CNC(=O)C1 [(R)-4-((R)-1-(6-(1-tert-butyl-1H-pyrazol-4-yl)-3-methyl-3H-imidazo[4,5-c]pyridin-4-yloxy)ethyl)pyrrolidin-2-one]",4.9
11,"COc1cc(-c2cc3ncn(C)c3c(O[C@H](C)[C@H]3CNC(=O)C3)n2)ccc1C#N [2-methoxy-4-(3-methyl-4-((R)-1-((R)-5-oxopyrrolidin-3-yl)ethoxy)-3H-imidazo[4,5-c]pyridin-6-yl)benzonitrile]",74.2
12,"COc1ccc(-c2cc3nc(C)n(C4CC4)c3c(O[C@H](C)[C@H]3CNC(=O)C3)n2)cc1OC [(R)-4-((R)-1-(3-cyclopropyl-6-(3,4-dimethoxyphenyl)-2-methyl-3H-imidazo[4,5-c]pyridin-4-yloxy)ethyl)pyrrolidin-2-one]",95.8
13,"COc1ccc(-c2cc3ncn(C(F)F)c3c(O[C@H](C)[C@H]3CNC(=O)C3)n2)cc1OC [(R)-4-((R)-1-(3-(difluoromethyl)-6-(3,4-dimethoxyphenyl)-3H-imidazo[4,5-c]pyridin-4-yloxy)ethyl)pyrrolidin-2-one]",1.1
14,"COc1ccc(-c2cn3nc(C)cc3c(O[C@H](C)[C@H]3CNC(=O)C3)n2)cc1OC [(R)-4-((R)-1-((6-(3,4-dimethoxyphenyl)-2-methylpyrazolo[1,5-a]pyrazin-4-yl)oxy)ethyl)pyrrolidin-2-one]",31.4
15,"C[C@@H](Oc1cc(-c2cc3c(cnn3C)s2)cc2ncsc12)[C@H]1CNC(=O)C1 (stereo in doubt) [(R)-4-((R)-1-((5-(1-methyl-1H-thieno[3,2-c]pyrazol-5-yl)benzo[d]thiazol-7-yl)oxy)ethyl)pyrrolidin-2-one]",2.97
16,"C[C@@H](Oc1nc(-c2ccc(S(=O)(=O)N(C)C)cc2)cc2ncn(C)c12)[C@H]1CNC(=O)C1 [N,N-dimethyl-4-(3-methyl-4-((R)-1-((R)-5-oxopyrrolidin-3-yl)ethoxy)-3H-imidazo[4,5-c]pyridin-6-yl)benzenesulfonamide]",13.4
17,"COc1ccc(-c2cc3nc(C)n(C)c3c(O[C@H](C)[C@H]3CNC(=O)C3)n2)cc1OC [(4R)-4-((1R)-1-(6-(3,4-dimethoxyphenyl)-2,3-dimethyl-3a,7a-dihydro-3H-imidazo[4,5-c]pyridin-4-yloxy)ethyl)pyrrolidin-2-one]",25.4
18,"C[C@@H](Oc1nc(-c2cccc(S(C)(=O)=O)c2)cc2ncn(C)c12)[C@H]1CNC(=O)C1 [(R)-4-((R)-1-(3-methyl-6-(3-(methylsulfonyl)phenyl)-3H-imidazo[4,5-c]pyridin-4-yloxy)ethyl)pyrrolidin-2-one]",42.5
19,"COc1ccc(-c2cc3ncn(C)c3c(O[C@H](C)[C@H]3CNC(=O)C3)n2)nc1OC [(R)-4-((R)-1-(6-(5,6-dimethoxypyridin-2-yl)-3-methyl-3H-imidazo[4,5-c]pyridin-4-yloxy)ethyl)pyrrolidin-2-one]",34
20,"CC(=O)N1CCN(c2ccc(-c3cc4ncn(C)c4c(O[C@H](C)[C@H]4CNC(=O)C4)n3)cc2)CC1 [(R)-4-((R)-1-(6-(4-(4-acetylpiperazin-1-yl)phenyl)-3-methyl-3H-imidazo[4,5-c]pyridin-4-yloxy)ethyl)pyrrolidin-2-one]",3.14
21,"C[C@@H](Oc1nc(-c2cnn(CCF)c2)cc2ncn(C)c12)[C@H]1CNC(=O)C1 [(R)-4-((R)-1-(6-(1-(2-fluoroethyl)-1H-pyrazol-4-yl)-3-methyl-3H-imidazo[4,5-c]pyridin-4-yloxy)ethyl)pyrrolidin-2-one]",13.2
22,"COc1ccc(-c2cc3ncn(C4CCC4)c3c(O[C@H](C)[C@H]3CNC(=O)C3)n2)cc1OC [(R)-4-((R)-1-(3-cyclobutyl-6-(3,4-dimethoxyphenyl)-3H-imidazo[4,5-c]pyridin-4-yloxy)ethyl)pyrrolidin-2-one]",23.5

# Same assay, conditions: table 'ALL NEW COMPOUNDS IN 2014', 20 μM ATP, 1 μM biotinylated peptide, 0.015 nM Syk, 30 min at room temperature, read-out: Syk IC50
row,Compound,IC50 [nM]
1,"C[C@@H](Oc1nc(-c2ccc(N3CCN(C4COC4)CC3)cc2)cc2ncn(CCO)c12)[C@H]1CNC(=O)C1 [(R)-4-((R)-1-((3-(2-hydroxyethyl)-6-(4-(4-(oxetan-3-yl)piperazin-1-yl)phenyl)-3H-imidazo[4,5-c]pyridin-4-yl)oxy)ethyl)pyrrolidin-2-one]",135
2,"C[C@@H](Oc1nc(-c2ccc3c(c2)NCCN3C)cc2ncn(C3CC3)c12)[C@H]1CNC(=O)C1 [(R)-4-((R)-1-((3-cyclopropyl-6-(1-methyl-1,2,3,4-tetrahydroquinoxalin-6-yl)-3H-imidazo[4,5-c]pyridin-4-yl)oxy)ethyl)pyrrolidin-2-one]",2.25
3,"C[C@@H](Oc1nc(-c2ccc(N3CCn4c(nnc4C(F)(F)F)C3)cc2)cc2ncn(C3CC3)c12)[C@H]1CNC(=O)C1 [(R)-4-((R)-1-((3-cyclopropyl-6-(4-(3-(trifluoromethyl)-5,6-dihydro-[1,2,4]triazolo[4,3-a]pyrazin-7(8H)-yl)phenyl)-3H-imidazo[4,5-c]pyridin-4-yl)oxy)ethyl)pyrrolidin-2-one]",2.17
4,"Cc1nnc(-c2cc(O[C@H](C)[C@H]3CNC(=O)C3)c3c(c2)ncn3C2CC2)s1 [(R)-4-((R)-1-((1-cyclopropyl-5-(5-methyl-1,3,4-thiadiazol-2-yl)-1H-benzo[d]imidazol-7-yl)oxy)ethyl)pyrrolidin-2-one]",5.45
5,C[C@@H](Oc1nc(-c2ccccc2)cc2ncn(C3CC3)c12)[C@H]1CNC(=O)C1,12.5
6,C[C@@H](Oc1nc(-c2cnn(CC(C)(C)O)c2)cc2ncn(C3CC3)c12)[C@H]1CNC(=O)C1,9.65
7,"C[C@@H](Oc1nc(-c2cnc(N3CCN(C4COC4)CC3)c(F)c2)cc2ncn(C3CC3)c12)[C@H]1CNC(=O)C1 [(R)-4-((R)-1-((3-cyclopropyl-6-(5-fluoro-6-(4-(oxetan-3-yl)piperazin-1-yl)pyridin-3-yl)-3H-imidazo[4,5-c]pyridin-4-yl)oxy)ethyl)pyrrolidin-2-one]",17.2
8,C[C@@H](Oc1cc(-c2ccc(N3CCN(C4COC4)CC3)nc2)cc2ncn(C3CC3)c12)[C@H]1CNC(=O)C1 [(R)-4-((R)-1-((1-cyclopropyl-5-(6-(4-(oxetan-3-yl)piperazin-1-yl)pyridin-3-yl)-1H-benzo[d]imidazol-7-yl)oxy)ethyl)pyrrolidin-2-one],7.38
9,"C[C@@H](Oc1nc(-c2ccc3c(c2)NCC3(C)C)cc2ncn(C3CC3)c12)[C@H]1CNC(=O)C1 [(R)-4-((R)-1-((3-cyclopropyl-6-(3,3-dimethylindolin-6-yl)-3H-imidazo[4,5-c]pyridin-4-yl)oxy)ethyl)pyrrolidin-2-one]",2.33
10,C[C@@H](Oc1cc(-c2ccc(N3CCN(C4COC4)CC3)c(C#N)c2)cc2ncn(C3CC3)c12)[C@H]1CNC(=O)C1 [5-(1-cyclopropyl-7-((R)-1-((R)-5-oxopyrrolidin-3-yl)ethoxy)-1H-benzo[d]imidazol-5-yl)-2-(4-(oxetan-3-yl)piperazin-1-yl)benzonitrile],3.2
